The supplement of paper PMC10307832

Tests used:
Assay in all cases: relative viability (nuclei count vs DMSO), 5 days (fraction); higher = more cells survive
Lapatinib + Phenformin = compound: CS(=O)(=O)CCNCc1ccc(-c2ccc3ncnc(Nc4ccc(OCc5cccc(F)c5)c(Cl)c4)c3c2)o1 [Lapatinib] + N=C(N)NC(=N)NCCc1ccccc1 [Phenformin] (partner 250 µM)
Procedure, shortened: (§1)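 Lung cancer cell lines were seeded in 1536-well plates and dosed by pin tool the next day, with either a single drug or a fixed anchor-drug dose combined with five library-drug doses (not always all listed) spaced in √10 steps. Five days later, one step fixed the cells and stained their nuclei (final 0.05% Triton X-100, 1% formaldehyde, 1 ug/ml Hoechst), and nuclei were counted on 4× images. Relative viability is the nuclei count in treated wells divided by the count in vehicle wells, and each value is the median of duplicate plates.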

Wnt-C59 + Crizotinib = compound: CC1=NC=CC(=C1)C2=CC=C(C=C2)CC(=O)NC3=CC=C(C=C3)C4=CN=CC=C4 [Wnt-C59] + C[C@@H](Oc1cc(-c2cnn(C3CCNCC3)c2)cnc1N)c1c(Cl)ccc(F)c1Cl [Crizotinib] (partner 1 µM)
Procedure, shortened: as §1

Wnt-C59 + Navitoclax = compound: CC1=NC=CC(=C1)C2=CC=C(C=C2)CC(=O)NC3=CC=C(C=C3)C4=CN=CC=C4 [Wnt-C59] + CC1(C)CCC(c2ccc(Cl)cc2)=C(CN2CCN(c3ccc(C(=O)NS(=O)(=O)c4ccc(N[C@H](CCN5CCOCC5)CSc5ccccc5)c(S(=O)(=O)C(F)(F)F)c4)cc3)CC2)C1 [Navitoclax] (partner 0.5 µM)
Procedure, shortened: as §1

Lapatinib + OSI-027 = compound: CS(=O)(=O)CCNCc1ccc(-c2ccc3ncnc(Nc4ccc(OCc5cccc(F)c5)c(Cl)c4)c3c2)o1 [Lapatinib] + COc1cccc2cc(-c3nc([C@H]4CC[C@H](C(=O)O)CC4)n4ncnc(N)c34)[nH]c12 [OSI-027] (partner 0.5 µM)
Procedure, shortened: as §1

Cell Line: UMC-11
- relative viability (Lapatinib + Phenformin; first compound 0.02 µM): 0.351
- relative viability (Lapatinib + Phenformin; first compound 0.06325 µM): 0.306
- relative viability (Lapatinib + Phenformin; first compound 0.2 µM): 0.297
- relative viability (Lapatinib + Phenformin; first compound 0.6325 µM): 0.321
- relative viability (Lapatinib + Phenformin; first compound 2 µM): 0.298
- relative viability (Wnt-C59 + Crizotinib; first compound 0.001 µM): 0.659
- relative viability (Wnt-C59 + Crizotinib; first compound 0.01 µM): 0.567
- relative viability (Wnt-C59 + Crizotinib; first compound 0.03162 µM): 0.588
- relative viability (Wnt-C59 + Crizotinib; first compound 0.1 µM): 0.518
- relative viability (Wnt-C59 + Navitoclax; first compound 0.001 µM): 0.312
- relative viability (Wnt-C59 + Navitoclax; first compound 0.01 µM): 0.315
- relative viability (Wnt-C59 + Navitoclax; first compound 0.03162 µM): 0.265
- relative viability (Wnt-C59 + Navitoclax; first compound 0.1 µM): 0.339
- relative viability (Lapatinib + OSI-027; first compound 0.02 µM): 0.461
- relative viability (Lapatinib + OSI-027; first compound 0.06325 µM): 0.427
- relative viability (Lapatinib + OSI-027; first compound 0.2 µM): 0.582
- relative viability (Lapatinib + OSI-027; first compound 0.6325 µM): 0.464
- relative viability (Lapatinib + OSI-027; first compound 2 µM): 0.465
